The values below come from the OligoGym collection.

HELM strings list units from the 5' end as sugar, base in round brackets, then linkage (d deoxyribose, r ribose, m 2'-O-methyl, p phosphodiester). Strings are as the collection lists them; they lack the last nucleoside at the 3' end of the tested compound. [moe] = 2'-O-(2-methoxyethyl) (MOE); [sp] = phosphorothioate linkage; [m5C] = 5-methylcytosine

The data set addresses SMN2. The experiment in a line: mouse, dose not given. As to conditions: ASO.

Substance “RNA1{[moe](A)[sp].[moe]([m5C])[sp].[moe](T)[sp].[moe](T)[sp].[moe](T)[sp].[moe]([m5C])p.[moe](A)p.[moe](T)p.[moe](A)p.[moe](A)p.[moe](T)p.[moe](G)[sp].[moe]([m5C])[sp].[moe](T)[sp].[moe](G)[sp].[moe](G)}$$$$ (last 3' nucleoside missing)” had a 3 h FOB score of 0 score 0-7.

Regarding “RNA1{[moe](A)[sp].[moe]([m5C])[sp].[moe](T)[sp].[moe](T)[sp].[moe](T)[sp].[moe]([m5C])p.[moe](A)p.[moe](T)p.[moe](A)p.[moe](A)p.[moe](T)p.[moe](G)p.[moe]([m5C])[sp].[moe](T)[sp].[moe](G)[sp].[moe](G)}$$$$ (last 3' nucleoside missing)”, the 3 h FOB score turned out to be 0 score 0-7.

The substance “RNA1{[moe](A)[sp].[moe]([m5C])[sp].[moe](T)[sp].[moe](T)[sp].[moe](T)p.[moe]([m5C])p.[moe](A)p.[moe](T)p.[moe](A)[sp].[moe](A)[sp].[moe](T)[sp].[moe](G)[sp].[moe]([m5C])[sp].[moe](T)[sp].[moe](G)[sp].[moe](G)}$$$$ (last 3' nucleoside missing)” came in with a 3 h FOB score of 0 score 0-7.

In the case of “RNA1{[moe](A)[sp].[moe]([m5C])[sp].[moe](T)p.[moe](T)[sp].[moe](T)[sp].[moe]([m5C])[sp].[moe](A)[sp].[moe](T)[sp].[moe](A)[sp].[moe](A)[sp].[moe](T)[sp].[moe](G)[sp].[moe]([m5C])[sp].[moe](T)p.[moe](G)[sp].[moe](G)}$$$$ (last 3' nucleoside missing)”, the 3 h FOB score was determined as 0 score 0-7.

As to “RNA1{[moe](A)[sp].[moe]([m5C])[sp].[moe](T)p.[moe](T)[sp].[moe](T)[sp].[moe]([m5C])[sp].[moe](A)[sp].[moe](T)[sp].[moe](A)p.[moe](A)[sp].[moe](T)[sp].[moe](G)[sp].[moe]([m5C])[sp].[moe](T)p.[moe](G)[sp].[moe](G)}$$$$ (last 3' nucleoside missing)”, the 3 h FOB score worked out at 0 score 0-7.

Regarding “RNA1{[moe](A)[sp].[moe]([m5C])[sp].[moe](T)p.[moe](T)[sp].[moe](T)[sp].[moe]([m5C])[sp].[moe](A)p.[moe](T)[sp].[moe](A)[sp].[moe](A)[sp].[moe](T)p.[moe](G)[sp].[moe]([m5C])[sp].[moe](T)p.[moe](G)[sp].[moe](G)}$$$$ (last 3' nucleoside missing)”, the 3 h FOB score was found to be 0 score 0-7.

Take “RNA1{[moe](A)[sp].[moe]([m5C])[sp].[moe](T)p.[moe](T)[sp].[moe](T)[sp].[moe]([m5C])p.[moe](A)[sp].[moe](T)[sp].[moe](A)p.[moe](A)[sp].[moe](T)[sp].[moe](G)p.[moe]([m5C])[sp].[moe](T)p.[moe](G)[sp].[moe](G)}$$$$ (last 3' nucleoside missing)”: the 3 h FOB score worked out at 0 score 0-7.

Consider “RNA1{[moe](A)[sp].[moe]([m5C])[sp].[moe](T)p.[moe](T)[sp].[moe](T)p.[moe]([m5C])[sp].[moe](A)p.[moe](T)[sp].[moe](A)p.[moe](A)[sp].[moe](T)p.[moe](G)[sp].[moe]([m5C])p.[moe](T)[sp].[moe](G)[sp].[moe](G)}$$$$ (last 3' nucleoside missing)”, for which the 3 h FOB score stood at 0 score 0-7.

“RNA1{[moe](A)[sp].[moe]([m5C])[sp].[moe](T)p.[moe](T)p.[moe](T)p.[moe]([m5C])p.[moe](A)[sp].[moe](T)[sp].[moe](A)[sp].[moe](A)[sp].[moe](T)[sp].[moe](G)[sp].[moe]([m5C])[sp].[moe](T)[sp].[moe](G)[sp].[moe](G)}$$$$ (last 3' nucleoside missing)” yielded a 3 h FOB score of 0 score 0-7.

As for “RNA1{[moe](A)[sp].[moe]([m5C])p.[moe](T)p.[moe](T)[sp].[moe](T)[sp].[moe]([m5C])[sp].[moe](A)[sp].[moe](T)[sp].[moe](A)[sp].[moe](A)[sp].[moe](T)[sp].[moe](G)[sp].[moe]([m5C])p.[moe](T)p.[moe](G)[sp].[moe](G)}$$$$ (last 3' nucleoside missing)”, the 3 h FOB score came to 0 score 0-7.

As for “RNA1{[moe](A)[sp].[moe]([m5C])p.[moe](T)p.[moe](T)p.[moe](T)[sp].[moe]([m5C])[sp].[moe](A)[sp].[moe](T)[sp].[moe](A)[sp].[moe](A)[sp].[moe](T)[sp].[moe](G)[sp].[moe]([m5C])p.[moe](T)p.[moe](G)[sp].[moe](G)}$$$$ (last 3' nucleoside missing)”, the 3 h FOB score came to 0 score 0-7.

Substance “RNA1{[moe](A)[sp].[moe]([m5C])p.[moe](T)p.[moe](T)p.[moe](T)[sp].[moe]([m5C])[sp].[moe](A)[sp].[moe](T)[sp].[moe](A)[sp].[moe](A)[sp].[moe](T)[sp].[moe](G)p.[moe]([m5C])p.[moe](T)p.[moe](G)[sp].[moe](G)}$$$$ (last 3' nucleoside missing)” displayed a 3 h FOB score of 0 score 0-7.

Consider “RNA1{[moe](A)[sp].[moe]([m5C])p.[moe](T)p.[moe](T)p.[moe](T)p.[moe]([m5C])[sp].[moe](A)[sp].[moe](T)[sp].[moe](A)[sp].[moe](A)[sp].[moe](T)[sp].[moe](G)p.[moe]([m5C])p.[moe](T)p.[moe](G)[sp].[moe](G)}$$$$ (last 3' nucleoside missing)”, for which the 3 h FOB score was 0 score 0-7.

For the substance “RNA1{[moe](A)p.[moe](T)[sp].[moe]([m5C])[sp].[moe](A)[sp].[moe]([m5C])[sp].[moe](T)[sp].[moe](T)[sp].[moe](T)[sp].[moe]([m5C])[sp].[moe](A)[sp].[moe](T)[sp].[moe](A)[sp].[moe](A)[sp].[moe](T)[sp].[moe](G)[sp].[moe]([m5C])[sp].[moe](T)[sp].[moe](G)}$$$$ (last 3' nucleoside missing)”, the 3 h FOB score came to 4 score 0-7.

Regarding “RNA1{[moe](G)[sp].[moe](A)[sp].[moe](T)[sp].[moe](T)[sp].[moe]([m5C])[sp].[moe](A)[sp].[moe]([m5C])[sp].[moe](T)[sp].[moe](T)[sp].[moe](T)[sp].[moe]([m5C])[sp].[moe](A)[sp].[moe](T)[sp].[moe](A)[sp].[moe](A)[sp].[moe](T)[sp].[moe](G)[sp].[moe]([m5C])[sp].[moe](T)}$$$$ (last 3' nucleoside missing)”, the 3 h FOB score worked out at 4 score 0-7.

For the substance “RNA1{[moe](G)[sp].[moe](A)[sp].[moe](T)[sp].[moe](T)[sp].[moe]([m5C])[sp].[moe](A)[sp].[moe]([m5C])[sp].[moe](T)[sp].[moe](T)[sp].[moe](T)[sp].[moe]([m5C])[sp].[moe](A)[sp].[moe](T)[sp].[moe](A)[sp].[moe](A)[sp].[moe](T)[sp].[moe](G)[sp].[moe]([m5C])}$$$$ (last 3' nucleoside missing)”, the 3 h FOB score was 2 score 0-7.

On to “RNA1{[moe](T)[sp].[moe](T)[sp].[moe]([m5C])[sp].[moe](A)[sp].[moe]([m5C])[sp].[moe](T)[sp].[moe](T)[sp].[moe](T)[sp].[moe]([m5C])[sp].[moe](A)[sp].[moe](T)[sp].[moe](A)[sp].[moe](A)[sp].[moe](T)[sp].[moe](G)[sp].[moe]([m5C])[sp].[moe](T)[sp].[moe](G)}$$$$ (last 3' nucleoside missing)”, for which the 3 h FOB score came out at 3.75 score 0-7.
